What was measured:
[1] = test system: methotrexate-induced delayed vomiting in dogs; test: Methotrexate-induced delayed vomiting in dogs, oral dosing; type: in vivo, beagle dogs; conditions: methotrexate 2.5 mg/kg i.v.; for Frequency of vomiting (mean ± SD), Total frequency / Number of dogs with vomiting/number of tested dogs: 72 hours
Protocol: 3 or 4 beagle dogs (8.3 to 12.6 kg), male or female per one group were used. Methotrexate was intravenously administered at 2.5 mg/ml/kg. 8, 24 and 48 hours after methotrexate dosing, predetermined doses of the compound No. 3, ondansetron and 0.5% methyl cellulose solution were orally given. The compound No. 3 and 0.5 % methyl cellulose solution were dosed 30 minutes after a small amount of a feed was given to the animals, while ondansetron was dosed to the animals under fasting. The frequency of vomiting was counted in number, up to 72 hours after methotrexate dosing. The compound No. 3 was suspended in 0.5 % methyl cellulose solution and was then orally dosed at a ratio of 0.25 to 1 ml per 1 kg body weight. A predetermined volume of an ondansetron injection at a concentration of 0.2 w/v % was orally dosed. Additionally, 0.5 % methyl cellulose solution was orally given at a ratio of 1 ml per 1 kg body weight. The data relating to the frequency of vomiting, the latency and the time period from the occurrence of vomiting to the termination thereof were statistically analyzed by the Dunnett test, with reference to the difference from the control group.
The delayed vomiting suppression ratio and the suppression ratio of the total frequency of vomiting were calculated by the following formula.

[2] = test system: acute and delayed vomiting induced by cisplatin in ferrets; test: Acute and delayed vomiting induced by cisplatin in ferrets, oral dosing once or twice daily; type: in vivo; conditions: cisplatin 5 mg/kg i.p.
Protocol: Male 4 to 6 ferrets (1.2 to 2.2 kg) per one group were used. Cisplatin was intraperitoneally given at 5 mg/5ml/kg. 30 minutes prior to cisplatin administration and 24 and 48 hours after cisplatin administration, predetermined doses of the compound No. 3 were orally given in case of dosing once daily. 30 minutes prior to cisplatin administration and 12, 24, 36, 48 and 60 hours after cisplatin administration, predetermined doses of the compound No. 3 were orally given in case of dosing twice daily. 30 minutes prior to the dosing of the compound No. 3, a small amount of a feed was given to the animals in any of the cases. Similarly, a predetermined volume of 0.5 % methyl cellulose solution was similarly given orally to a control animal group under no fasting. A predetermined dose of ondansetron was orally given to the animals under fasting. To a control animal group of ondansetron, a predetermined volume of physiological saline was orally given to the animals under fasting. The frequency of vomiting was counted in number, up to 72 hours after cisplatin administration.
The compound No. 3 was suspended in 0.5 % methyl cellulose solution, for oral dosing at predetermined doses at a ratio of 1 ml per 1 kg body weight. An injection of ondansetron at 0.2 w/v % concentration was orally given at a predetermined volume. Additionally, 0.5 % methyl cellulose solution was orally given at a ratio of 1 ml per 1 kg body weight, while physiological saline was orally given at a ratio of 0.5 to 1.5 ml per 1 kg body weight. The data relating to the frequency of vomiting, the time period (latency) until first vomiting and the time period from the occurrence of vomiting to the termination thereof were statistically analyzed by the Dunnett test, with reference to the difference from the control group.
The acute vomiting suppression ratio, delayed vomiting suppression ratio and total vomiting suppression ratio were calculated by the following formula. [Frequency of retching or vomiting in control] - [Frequency of retching or vomiting in animals dosed with compound No. 3] / [Frequency of retching or vomiting in control] x 100 (%) [formula]

[3] = 0.03 mg/kg × 2 p.o., twice daily
[4] = 0.1 mg/kg × 2 p.o., twice daily

## Cc1ccc(-c2c3n(c(=O)c4ncccc24)CC[C@@H](C)CN(Cc2cc(C(F)(F)F)cc(C(F)(F)F)c2)C3=O)cc1 [Cpd. No.3, (9R)-7-[3,5-bis(trifluoromethyl)benzyl]-6,7,8,9,10,11-hexahydro-9-methyl-5-(4-methylphenyl)-6,13-dioxo-13H-[1,4]diazocino[2,1-g][1,7]naphthylidine]
[1]; 0.01 mg/kg or higher p.o.
  Effect on methotrexate-induced vomiting (in words): significantly suppressed
  Effect on the time period from the occurrence of vomiting to the termination thereof (in words): significantly shortened
[1]; 0.01 mg/kg p.o. once daily
  Delayed vomiting suppression ratio (24 to 72 hours after MIX dosing): 60 % b
  Suppression ratio of total frequency of vomiting (0 to 72 hours after MTX dosing): 62 % b
[1]; 0.01 mg/kg p.o.
  Duration (in hour; mean ± SD): 21.8 ± 5.8 a hour
  Frequency of vomiting (mean ± SD), Day 0 (0-24 hours): 0 b
  Frequency of vomiting (mean ± SD), Days 1 + 2 (24 - 72 hours): 4.7 ± 0.7 b
  Latency (in hour; mean ± SD): 33.8 ± 4.8 h
  Frequency of vomiting (mean ± SD), Total frequency: 4.7 ± 0.7 b
  Number of dogs with vomiting/number of tested dogs: 3/3
[1]; 0.1 mg/kg p.o. once daily
  Delayed vomiting suppression ratio (24 to 72 hours after MIX dosing): 74 % b
  Suppression ratio of total frequency of vomiting (0 to 72 hours after MTX dosing): 76 % b
[1]; 0.1 mg/kg p.o.
  Duration (in hour; mean ± SD): 15.0 ± 8.0 b hour
  Frequency of vomiting (mean ± SD), Day 0 (0-24 hours): 0 b
  Frequency of vomiting (mean ± SD), Days 1 + 2 (24 - 72 hours): 3.0 ± 1.0 b
  Latency (in hour; mean ± SD): 35.7 ± 7.1 h
  Frequency of vomiting (mean ± SD), Total frequency: 3.0 ± 1.0 b
  Number of dogs with vomiting/number of tested dogs: 3/3
[1]; 1 mg/kg p.o. once daily
  Delayed vomiting suppression ratio (24 to 72 hours after MIX dosing): 68 % b
  Suppression ratio of total frequency of vomiting (0 to 72 hours after MTX dosing): 70 % b
[1]; 1 mg/kg p.o.
  Duration (in hour; mean ± SD): 14.4 ± 6.1 b hour
  Frequency of vomiting (mean ± SD), Day 0 (0-24 hours): 0 b
  Frequency of vomiting (mean ± SD), Days 1 + 2 (24 - 72 hours): 3.7 ± 0.7 b
  Latency (in hour; mean ± SD): 46.7 ± 8.7 h
  Frequency of vomiting (mean ± SD), Total frequency: 3.7 ± 0.7 b
  Number of dogs with vomiting/number of tested dogs: 3/3
[1]; 3 mg/kg p.o. once daily
  Delayed vomiting suppression ratio (24 to 72 hours after MIX dosing): 85 % b
  Suppression ratio of total frequency of vomiting (0 to 72 hours after MTX dosing): 86 % b
[1]; 3 mg/kg p.o.
  Duration (in hour; mean ± SD): 6.4 ± 5.9 b hour
  Frequency of vomiting (mean ± SD), Day 0 (0-24 hours): 0 b
  Frequency of vomiting (mean ± SD), Days 1 + 2 (24 - 72 hours): 1.7 ± 0.3 b
  Latency (in hour; mean ± SD): 45.5 ± 3.3 h
  Frequency of vomiting (mean ± SD), Total frequency: 1.7 ± 0.3 b
  Number of dogs with vomiting/number of tested dogs: 3/3
[1]; 10 mg/kg p.o. once daily
  Delayed vomiting suppression ratio (24 to 72 hours after MIX dosing): 97 % b
  Suppression ratio of total frequency of vomiting (0 to 72 hours after MTX dosing): 98 % b
[1]; 10 mg/kg p.o.
  Duration (in hour; mean ± SD): 0 b hour
  Effect on methotrexate-induced vomiting (in words): almost completely suppressed
  Frequency of vomiting (mean ± SD), Day 0 (0-24 hours): 0 b
  Frequency of vomiting (mean ± SD), Days 1 + 2 (24 - 72 hours): 0.3 ± 0.3 b
  Latency (in hour; mean ± SD): 66.2 ± 5.8 b hour
  Frequency of vomiting (mean ± SD), Total frequency: 0.3 ± 0.3 b
  Number of dogs with vomiting/number of tested dogs: 1/4
[2]; 0.03 mg/kg p.o. twice daily
  Acute vomiting suppression ratio (0 to 24 hours after cisplatin dosing): 25 % NS
  Delayed vomiting suppression ratio (24 to 72 hours after cisplatin dosing): 31 % NS
  Total vomiting suppression ratio (0 to 72 hours after cisplatin dosing): 30 % NS
[2]; [3]
  Duration (in hour; mean ± SD): 50.8 ± 7.3 h
  Latency (in hour; mean ± SD): 13.4 ± 4.9 h
  On day 0 (0-24 hours): frequency of retching and vomiting (mean ± SD): 24.8 ± 14.8
  On day 0 (0-24 hours): number of ferrets with vomiting/ number of tested ferrets: 3/4
  On days 1-2(24-48 hours): frequency of retching and vomiting (mean ± SD): 245.8 ± 34.3
  On days 1-2(24-48 hours): number of ferrets with vomiting/ number of tested ferrets: 4/4
  Total frequency of retching and vomiting (on days 0-2; 0-72 hours): 270.5 ± 43.7
[2]; 0.1 mg/kg p.o. twice daily
  Acute vomiting suppression ratio (0 to 24 hours after cisplatin dosing): 21 % NS
  Delayed vomiting suppression ratio (24 to 72 hours after cisplatin dosing): 37 % a
  Effect on delayed vomiting induced by cisplatin (in words): significantly suppressed
  Total vomiting suppression ratio (0 to 72 hours after cisplatin dosing): 36 % a
[2]; [4]
  Duration (in hour; mean ± SD): 54.8 ± 6.1 h
  Latency (in hour; mean ± SD): 13.3 ± 6.3 h
  On day 0 (0-24 hours): frequency of retching and vomiting (mean ± SD): 26.0 ± 11.2
  On day 0 (0-24 hours): number of ferrets with vomiting/ number of tested ferrets: 3/4
